Assay results taken from patent US5582832A, “Compositions for topical application to skin” (priority 1995, dated 1996).

Columns and labels:
Assay type in all cases: cell-based, human
keratinocytes = experiment: Rate of DNA synthesis (3H-thymidine incorporation) in keratinocytes; settings: for keratinocyte DNA synthesis, % of the corresponding controls (1 uM Econazole) / keratinocyte DNA synthesis, % of the corresponding controls (10 uM Econazole) / keratinocyte DNA synthesis, % of the corresponding controls (no azole): Table 5; for keratinocyte DNA synthesis, % of the corresponding controls (1 uM Econazole): 1 uM ceramide + 1 uM Econazole; for keratinocyte DNA synthesis, % of the corresponding controls (10 uM Econazole): 1 uM ceramide + 10 uM Econazole; for keratinocyte DNA synthesis, % of the corresponding controls (no azole): 1 uM ceramide
Experimental: (§1) 1. Normal human keratinocytes isolated from neonatal foreskins by trypsin treatment were grown in DME medium/10% fetal calf serum in the presence of irradiated 3T3 mouse fibroblasts for establishing dividing keratinocyte colonies. Keratinocytes were grown under the above condition until their third passage.
2. For the experiments, third passage keratinocytes were plated into a serum-free keratinocyte growth medium (KSFM; obtained from Life Technologies, Grand Island, N.Y.) containing 0.09 mM calcium. 20,000 to 30,000 cells were plated into each well of 24 well cell culture plates and grown for 5 days, until the cells reach about 80% confluence.
3. Medium was changed to fresh medium and the various test materials were added to the medium from an ethanolic stock solution (10:00 AM). The final ethanol concentration in the cultures was kept below 0.2%. Control cultures received no tested material but were dosed with 0.2% ethanol. Each compound or combination was tested in three separate wells. By 4:00 PM, 1 uCi of ^3 H-thymidine (Amersham Corp., Sp activity 40 Ci/mmol) was added to the 1 ml medium in each well. The cells were incubated overnight and […] (10:00 AM next day) the amount of ^3 -thymidine associated with the cellular DNA of keratinocytes was assessed as described below.
4. The medium was aspirated, and the wells washed with 1 ml phosphate-buffered saline. The DNA and proteins of the cells in the plate were then precipitated by adding 1 ml of ice-cold 10% trichloroacetic acid (TCA). The plates were left on ice for 30 minutes to complete the precipitation process. TCA was then aspirated and each well was then washed four times with 5% TCA. The plates were then dried on a filter pad and the cells in the wells were dissolved in 0.5 ml of 0.1N sodium hydroxide. The sodium hydroxide was then neutralized using 0.1N hydrochloric acid and the solution (1 ml total volume) was then transferred to a scintillation vial. 50 μl samples from each vial were used for protein assay using BCA protein assay reagent obtained from Pierce Chemical Company. 8 ml of a scintillation fluid (Ecolume) was added to the rest of the solution in the vial, and the vials were counted in a scintillation counter to determine the amount of radioactivity in each vial. The DNA synthesis rate was then calculated as cpm ^3 H thymidine incorporated into total cellular DNA/microgram of cell protein for each individual well. Mean and standard deviation for each group was also calculated.
Rationale for using 1,25D is that in in vivo situation, these azoles will inhibit the endogenous degradation of the 1,25D which is obtained from the circulation. Azoles will act in keratinocytes to increase the endogenous levels of 1,25D within cells. Keratinocytes (70% confluent) were incubated with 10 uM of the different azoles in the presence of 100 nM 1,25D. One of the groups was treated with 5 uM of ceramide of Formula A in the medium. After four hours, all the wells were treated with 1 uCi ^3 H-thymidine and the rate of DNA synthesis was estimated as described in the methods.
Keratinocytes were incubated with 1 or 10 uM of Econazole in the presence of 1 uM of the different ceramide analogues and 100 nM 1,25D in the medium. Thymidine incorporation was measured with an overnight incubation as described in Example 2.

[1] = system: 1,25D degradation (vitamin D metabolism in keratinocytes); experiment: Vitamin D metabolism in keratinocytes: 1,25D degradation; settings: for % degradation (1,25D): Table 1
Experimental: as §1
(§2) 80% confluent keratinocytes were incubated with 0.05 uCi of ^3 H-25D or ^3 H-1,25D for two hours or 20 hours in the presence of 1-100 uM of the different compounds. Reaction was stopped by addition of methanol and the cells and medium were extracted using chloroform:methanol. The chloroform layer was separated, dried and spotted on TLC plates. […] The amount of radioactivity in each lane was quantitated using the BioScan radioactive plate reader. The amount of radioactivity remaining in the peak area of 25D and 1,25D were calculated as % of control. The % remaining was subtracted from 100 to get the % degradation of the metabolites.
(§3) The data are expressed as mean of % degradation of 25D or 1,25D. The range is also given in parenthesis.

[2] = system: 25D degradation (vitamin D metabolism in keratinocytes); experiment: Vitamin D metabolism in keratinocytes: 25D degradation; settings: for % degradation (25D): Table 1
Experimental: as §1, §2, §3

[3] = 100 nM 1,25D, * = synergistic effect
[4] = Tables 5A-5I, 100 nM 1,25D, Econazole 10 uM, ceramide analogue 1 uM
[5] = Tables 5A-5I, 100 nM 1,25D, Econazole 10 uM, ceramide analogue 1 uM, mean + SD
[6] = Table 2, 1 uM, 20 hour incubation, mean of duplicate (range)

Structure (SMILES)	keratinocyte DNA synthesis, % of the corresponding controls (1 uM Econazole) (keratinocytes; 100 nM 1,25D)	keratinocyte DNA synthesis, % of the corresponding controls (10 uM Econazole) (keratinocytes; [3])	keratinocyte DNA synthesis, % of the corresponding controls (no azole) (keratinocytes; [3]) [%]	DNA synthesis (% control) (keratinocytes; [4])	DNA synthesis (keratinocytes; [5])	further results
CCCCCCCCCCCCCCCCN(CC(O)CO)C(=O)CCCCC (stereo not shown) [Formula G]	84.8 + 12.7%	28.2 + 15.2%	102.8 ± 14.4	102.8	30794 + 5311 cpm 3H thymidine incorporated	–
CCCCCCCCCCCCC/C=C/C(O)C(CO)NC(=O)CCCCC (stereo not shown) [Formula B]	123.9 + 30.3%	61.7 + 17%	126.6 ± 17.8	126	37927 + 6562 cpm 3H thymidine incorporated	–
CC1=CC(=O)c2ccccc2C1=O [menadione (vitamin K1), menadione]	–	–	–	–	–	% degradation (1,25D) ([1]; 100 uM compound): 93%; % degradation (25D) ([2]; 100 uM compound): 89%
CCCCCCCCCCCCCCC(O)CN(CCO)C(C)=O (stereo not shown) [Formula C]	78.0 + 15.1%	47.2 + 33.6%	77.7 ± 7.4	77.7	23288 + 2737 cpm 3H thymidine incorporated	–
Clc1ccc(COC(Cn2ccnc2)c2ccc(Cl)cc2Cl)c(Cl)c1 (stereo not shown) [Miconazole]	–	–	–	–	–	blocking of 1,25D degradation (in words) ([1]; 1 uM, 20 hours (Table 2)): did not block 1,25D degradation; % degradation (1,25D) ([1]; 10 uM compound): 70%; 1,25D degradation (%) [1, 6]: 75.8 (69.9-81.8) %; DNA synthesis, % of control (100 nM 1,25D + 5 uM ceramide Formula A) (keratinocytes; Table 4, 10 uM azole (or no azole) + 100 nM 1,25D + 5 uM ceramide Formula A, mean + SD, * = synergistic effect, 1440 min): 17.5 + 3.3 % of control; DNA synthesis, % of control (azole, only 100 nM 1,25D) (keratinocytes; Table 4, 10 uM azole, 100 nM 1,25D, no ceramide, mean + SD, 1440 min): 42.8 + 1.8 % of control; DNA synthesis (keratinocytes; Tables 4A-4F, 100 nM 1,25D, azole 10 uM, ceramide Formula A 5 uM, mean + SD): 62806 + 2649 cpm 3H thymidine incorporated; DNA synthesis (% control) (keratinocytes; Tables 4A-4F, 100 nM 1,25D, azole 10 uM, 1440 min): 42.8 % control; blocking of 25D degradation (in words) ([2]; 1 uM, 20 hours (Table 2)): effective with 25D; % degradation (25D) ([2]; 10 uM compound): 54%; 25D degradation (%) [2, 6]: 38.7 (35.4-42.0) %
CCCCCCCCCCCCN(CC(O)CO)C(=O)C(O)CCCCCC (stereo not shown) [Formula K]	82.9 + 16.9%	38.7 + 14.8%	100.2 ± 9.6	80	23958 + 5660 cpm 3H thymidine incorporated	–
N[C@@H](Cc1c[nH]c2ccccc12)C(=O)O [L-Tryptophan]	–	–	–	–	–	% degradation (1,25D) ([1]; 100 uM compound): 100%; % degradation (25D) ([2]; 100 uM compound): 83%
CCCCCCCCCCCCCCC(O)CN(CCO)C(=O)CCCCC (stereo not shown) [Formula D]	97.0 + 19.5%	28.8 + 3.9%	69.5 ± 11.3	69.5	20817 + 3928 cpm 3H thymidine incorporated	growth inhibition by ceramide analogues (in words) (keratinocytes; 1 uM, absence of azole): significantly inhibitory
